Reference: ChEMBL document CHEMBL1145395, “De novo design of selective antibiotic peptides by incorporation of unnatural amino acids” (J Med Chem, 2007)
Converted amounts (≈) assume the structure as drawn. The source made the active and inactive calls. The rule behind the calls is not given here. Non-standard residues stand in square brackets, D forms with d. Residues, ends and D or L forms follow the SMILES beside them. ξ: configuration not given here. Pro(3ξ,4ξ-(CH2)4) = O=C(O)[C@H]1NCC2CCCCC21; Oic = O=C(O)[C@@H]1C[C@@H]2CCCC[C@@H]2N1; Tic = O=C(O)[C@@H]1Cc2ccccc2CN1; GABA = NCCCC(=O)O

Experiments:
[1] = Toxicity to mouse RBC assessed as hemolytic activity at 100 uM; assay type: cell-based, Erythrocyte; conditions: red blood cells, read-out: Activity
[2] = Toxicity to mouse RBC assessed as hemolytic activity at 25 uM; assay type: cell-based, Erythrocyte; conditions: red blood cells, read-out: Activity
Salmonella typhimurium = assay: Antibacterial activity against Salmonella Typhimurium ATCC 13311; assay type: functional, Salmonella enterica subsp. enterica serovar Typhimurium; conditions: Salmonella enterica
Staphylococcus aureus = assay: Antibacterial activity against methicillin/gentamicin/tetracycline resistant Staphylococcus aureus ATCC 33592; assay type: functional
Mycobacterium = assay: Antibacterial activity against Mycobacterium ranae ATCC 110; assay type: functional
Bacillus subtilis = assay: Antibacterial activity against Bacillus subtilis ATCC 43223; assay type: functional

Row | Compound | hemolysis at 100 µM [1] [%] | hemolysis at 25 µM [2] [%] | MIC (Salmonella typhimurium) [µM] | Activity (Staphylococcus aureus) | MIC (Mycobacterium) [µM] | MIC (Bacillus subtilis) [µM]
1 | CC(=O)NCC(=O)N[C@@H](Cc1ccccc1)C(=O)N[C@@H](Cc1ccccc1)C(=O)N1CC2CCCCC2[C@H]1C(=O)NCC(=O)N[C@@H](CCCCN)C(=O)N[C@@H](Cc1ccccc1)C(=O)N1CC2CCCCC2[C@H]1C(=O)NCC(=O)N[C@@H](Cc1ccccc1)C(=O)N[C@@H](Cc1ccccc1)C(=O)N1CC2CCCCC2[C@H]1C(=O)NCC(=O)N[C@@H](CCCCN)C(=O)N[C@@H](Cc1ccccc1)C(=O)N[C@@H](CCCCN)C(=O)N[C@@H](CCCCN)C(=O)N[C@@H](CCCCN)C(=O)N[C@@H](CCCCN)C(N)=O (stereo partly specified) (Ac-GFF[Pro(3ξ,4ξ-(CH2)4)]GKF[Pro(3ξ,4ξ-(CH2)4)]GFF[Pro(3ξ,4ξ-(CH2)4)]GKFKKKK-NH2) | 27.3 | 8.9 | – | – | – | –
2 | NCCCC[C@H](NC(=O)[C@H](CCCCN)NC(=O)[C@H](CCCCN)NC(=O)[C@H](CCCCN)NC(=O)[C@@H]1Cc2ccccc2CN1C(=O)[C@H](CCCCN)NC(=O)CNC(=O)[C@@H]1C[C@@H]2CCCC[C@@H]2N1C(=O)[C@@H]1Cc2ccccc2CN1C(=O)[C@H](Cc1ccccc1)NC(=O)CNC(=O)[C@@H]1C[C@@H]2CCCC[C@@H]2N1C(=O)[C@@H]1Cc2ccccc2CN1C(=O)[C@H](CCCCN)NC(=O)CNC(=O)[C@@H]1C[C@@H]2CCCC[C@@H]2N1C(=O)[C@@H]1Cc2ccccc2CN1C(=O)[C@H](Cc1ccccc1)NC(=O)CN)C(N)=O (H-GF[Tic][Oic]GK[Tic][Oic]GF[Tic][Oic]GK[Tic]KKKK-NH2) | 33.4 | 14.3 | – | – | – | –
3 | CC(=O)NCC(=O)N[C@@H](Cc1ccccc1)C(=O)NCC(=O)N1CC2CCCCC2[C@H]1C(=O)NCC(=O)N[C@@H](CCCCN)C(=O)NCC(=O)N1CC2CCCCC2[C@H]1C(=O)NCC(=O)N[C@@H](Cc1ccccc1)C(=O)NCC(=O)N1CC2CCCCC2[C@H]1C(=O)NCC(=O)N[C@@H](CCCCN)C(=O)NCC(=O)N[C@@H](CCCCN)C(=O)N[C@@H](CCCCN)C(=O)N[C@@H](CCCCN)C(=O)N[C@@H](CCCCN)C(N)=O (stereo partly specified) (Ac-GFG[Pro(3ξ,4ξ-(CH2)4)]GKG[Pro(3ξ,4ξ-(CH2)4)]GFG[Pro(3ξ,4ξ-(CH2)4)]GKGKKKK-NH2) | 3.3 | 3.3 | – | – | – | –
4 | CC(=O)NCC(=O)N[C@@H](Cc1ccccc1)C(=O)N1CC2CCCCC2[C@H]1C(=O)NCC(=O)N[C@@H](CCCCN)C(=O)N1CC2CCCCC2[C@H]1C(=O)NCC(=O)N[C@@H](Cc1ccccc1)C(=O)N1CC2CCCCC2[C@H]1C(=O)NCC(=O)N[C@@H](CCCCN)C(=O)N[C@@H](CCCCN)C(=O)N[C@@H](CCCCN)C(=O)N[C@@H](CCCCN)C(=O)N[C@@H](CCCCN)C(N)=O (stereo partly specified) (Ac-GF[Pro(3ξ,4ξ-(CH2)4)]GK[Pro(3ξ,4ξ-(CH2)4)]GF[Pro(3ξ,4ξ-(CH2)4)]GKKKKK-NH2) | 5.9 | 3.2 | – | – | – | –
5 | CC(=O)NCC(=O)N[C@@H](Cc1ccccc1)C(=O)N1Cc2ccccc2C[C@H]1C(=O)NCC(=O)NCC(=O)N[C@@H](CCCCN)C(=O)N1Cc2ccccc2C[C@H]1C(=O)NCC(=O)NCC(=O)N[C@@H](Cc1ccccc1)C(=O)N1Cc2ccccc2C[C@H]1C(=O)NCC(=O)NCC(=O)N[C@@H](CCCCN)C(=O)N1Cc2ccccc2C[C@H]1C(=O)N[C@@H](CCCCN)C(=O)N[C@@H](CCCCN)C(=O)N[C@@H](CCCCN)C(=O)N[C@@H](CCCCN)C(N)=O (Ac-GF[Tic]GGK[Tic]GGF[Tic]GGK[Tic]KKKK-NH2) | 5.7 | 3.8 | 100 (≈ 216 µg/mL) | inactive | 30 (≈ 64.8 µg/mL) | 10 (≈ 21.6 µg/mL)
6 | CC(=O)NCCCC(=O)N[C@@H](Cc1ccccc1)C(=O)N1Cc2ccccc2C[C@H]1C(=O)N1[C@H](C(=O)NCCCC(=O)N[C@@H](CCCCN)C(=O)N2Cc3ccccc3C[C@H]2C(=O)N2[C@H](C(=O)NCCCC(=O)N[C@@H](Cc3ccccc3)C(=O)N3Cc4ccccc4C[C@H]3C(=O)N3[C@H](C(=O)NCCCC(=O)N[C@@H](CCCCN)C(=O)N4Cc5ccccc5C[C@H]4C(=O)N[C@@H](CCCCN)C(=O)N[C@@H](CCCCN)C(=O)N[C@@H](CCCCN)C(=O)N[C@@H](CCCCN)C(=O)N[C@@H](CCCCN)C(N)=O)C[C@@H]4CCCC[C@@H]43)C[C@@H]3CCCC[C@@H]32)C[C@@H]2CCCC[C@@H]21 (Ac-[GABA]F[Tic][Oic][GABA]K[Tic][Oic][GABA]F[Tic][Oic][GABA]K[Tic]KKKKK-NH2) | 29.7 | 10.5 | – | – | – | –
